{"source": "patent US20200131123A1", "about": "“INDOLE-FORMAMIDE DERIVATIVE, PREPARATION METHOD THEREFOR AND USE THEREOF IN MEDICINE” (Jiangsu Hengrui Medicine Co., Ltd., priority 2017, published 2020)", "key": {"[1]": {"assay": "Pharmacokinetics assay in mice after intragastrical administration", "format": "in vivo", "conditions": "female, C57, mouse, plasma, po, 2 mg/kg", "procedure": "Mice were used as test animals. The drug concentration in plasma at different time points was determined by LC/MS/MS method after intragastrical administration of the compound of Example 4 to mice. The pharmacokinetic behavior of the compound of the present invention was studied and evaluated in mice. A group of nine C57 mice (female) were purchased from Shanghai Jiesijie Laboratory Animal Co., LTD, with Certificate No.: SCXK (Shanghai) 2013-0006. A certain amount of the test compound was weighed, and added with 5% by volume of DMSO, 5% by volume of tween 80 and 90% by volume of normal saline to prepare a 0.1 mg/mL colorless, clear and transparent solution. […] The samples were stored in heparinized tubes, and centrifuged for 10 minutes at 3500 rpm to separate the blood plasma. The plasma samples were stored at −20° C. The content of the test compound in the plasma of mice after intragastrical administration of the test compound at different concentrations was determined: 25 μL of mouse plasma at each time after administration was taken, added with 80 μL of the internal standard solution of camptothecin (100 ng/mL) and 200 μL of acetonitrile, vortex-mixed for 5 minutes, and centrifuged for 10 minutes (3600 rpm). 1 μL of the supernatant was taken from the plasma samples for LC/MS/MS analysis."}, "MC38 colorectal tumor": {"system": "MC38 colorectal tumor", "assay": "Efficacy in isotype MC38 colorectal tumor mice model", "format": "in vivo, C57BL/6 mice", "procedure": "The inhibition effect of the compound of Example 4 on MC38 tumor growth was evaluated in MC38 mice model.\nExperimental female C57BL/6 mice were purchased from Charles River Lab (U.S.A.). The mice weighed 20-25 gram, and were 7-9 weeks old when purchased. The mice (10 mice per cage) were maintained in a constant temperature of 23+1° C., and a humidity of 50-60%, and free access to food and water. The mice were treated and used in accordance with the Institutional Animal Care and Use Committee (IACUC approved guidelines). After the animals were purchased, the test was started after 7 days of adaptive feeding.\nFemale C57BL/6 mice (20-25 gram, 7-9 weeks old) were used in the experiment. In vivo antitumor activity of the compound of Example 4 administered alone or the compound of Example 4 administered in combination with anti-mouse PD-1 antibody was evaluated by detecting the growth of isotype MC38 colorectal tumor (Synta Pharmaceuticals) in inbred C57BL/6 mice. 500,000 (5×10^5) MC38 cells were implanted subcutaneously in the right abdomen of each mouse. After 5 days, when the tumor grew to 40-80 mm^3, the mice were grouped randomly. The compound of Example 4 (30 mg/kg) was administered twice a day for 21 consecutive days. During the treatment experiment in which the antibody was administered alone or in combination with the compound of Example 4, anti-mouse PD-1 (CD279) antibody (BioXcell) (5 mg/kg) was intraperitoneally injected (i.p.) to the mice bearing MC38 tumor fixedly on Day 5, 8, 11 and 14. The control group was administered with the vehicle CMC-Na drug formulation and the IgG2a isotype control antibody.\nThe tumor volume was measured with a caliper in three dimensions, and then calculated according to the following formula: tumor volume (mm^3)=l×w×h×0.5236, wherein 1 represents the length of the tumor, w represents the width of the tumor, and h represents the height of the tumor, in millimeters. Tumor growth inhibition rate TGI %=100×(TVcontrol−TVtumor)/(TVcontrol−TVinitial), wherein TVcontrol=the tumor volume of the control group; TVtumor=the tumor volume of the treatment group; and TVinitial=the initial tumor volume on Day 5."}, "IL-17A": {"system": "IL-17A", "assay": "IL-17A enzyme-linked immune quantitative assay in cytostim-activated human PBMC", "format": "cell-based", "conditions": "72 h; IL-17A in supernatant of human PBMC, 3 days after drug treatment", "procedure": "1. Human peripheral blood mononuclear cells (PBMC) (Zenbio)\n5. Human IL-17 enzyme-linked immunosorbent kit (R&D System)\nFrozen human peripheral blood mononuclear cells (PBMC) were rapidly resuscitated in pre-warmed lymphocyte culture medium, and centrifuged at 1000 rpm for 10 min. The cell culture supernatant was removed. The cells were gently suspended in TexMACS medium and counted. The T cell activation reagent cytostim (10 μl/ml) was added in proportion to the cell suspension. Then, the cells were seeded in a 96-well cell culture plate at a density of 1×10^5 peripheral blood mononuclear cells/well. The test compounds were diluted in gradient with TexMACS medium, and added respectively to the test wells, with 2-3 parallel wells per group. A negative control well containing only cells without cytostim was provided to obtain the background reading. The cell culture plate was placed in a incubator at 5% carbon dioxide, 37° C. to incubate for 3 days. The cell culture supernatant was collected 3 days after drug treatment, and centrifuged to remove the suspension. Then, IL-17A in the supernatant was quantified with IL-17A enzyme-linked immunosorbent kit. EC50 values of the test compounds were calculated with GraphPad Prism 6.0."}, "[2]": {"conditions": "30 mg/kg in combination with anti-mouse PD-1 monoclonal antibody (5 mg/kg)"}}, "data": [{"smiles": "CCS(=O)(=O)c1ccc([C@H](CO)NC(=O)c2ccc3c(c2)cc(Cc2ccc(Cl)cc2C(F)(F)F)n3CCF)cc1", "note": "[Example 4, (R)-2-(4-Chloro-2-(trifluoromethyl)benzyl)-N-(1-(4-(ethylsulfonyl)phenyl)-2-hydroxyethyl)-1-(2-fluoroethyl)-1H-indole-5-carboxamide]", "values": [{"measurement": "Vd/F", "setting": "[1]; read-out: Apparent distribution volume Vz/F", "result": 0.637, "unit": "L/kg"}, {"measurement": "AUC", "setting": "[1]; read-out: Area under curve AUC", "result": 50.6, "unit": "µg·h/mL"}, {"measurement": "CL/F", "setting": "[1]; read-out: Clearance CLz/F", "result": 0.0396, "unit": "L/h/kg"}, {"measurement": "half-life", "setting": "[1]; read-out: Half-life T1/2 (converted)", "result": 11.2, "unit": "h"}, {"measurement": "Cmax", "setting": "[1]; read-out: Plasma concentration Cmax", "result": 3.66, "unit": "µg/mL"}, {"measurement": "MRT", "setting": "[1]; read-out: Residence time MRT", "result": 15.5, "unit": "h"}, {"measurement": "TGI (tumor growth inhibition rate)", "setting": "MC38 colorectal tumor; 30 mg/kg administered alone, oral, twice a day for 21 days", "result": 40, "unit": "%"}, {"measurement": "Effect of combined administration with PD-1 antibody", "setting": "MC38 colorectal tumor; [2]", "result": "synergistic effect"}, {"measurement": "TGI (tumor growth inhibition rate)", "setting": "MC38 colorectal tumor; [2]", "result": 63, "unit": "%"}, {"measurement": "Antitumor activity", "setting": "MC38 colorectal tumor; administered alone", "result": "exhibits an antitumor activity"}, {"measurement": "EC50", "setting": "IL-17A", "result": 0.085, "unit": "µM"}, {"measurement": "Emax", "setting": "IL-17A", "result": 93, "unit": "%"}]}]}
